Results: paper PMC5733478, “A Non-imaging High Throughput Approach to Chemical Library Screening at the Unmodified Adenosine-A3 Receptor in Living Cells” (Frontiers in Pharmacology, 2017)
Like-named read-outs stand apart in the source and are kept apart here.

Experiments:
β2AR = target: T1, β2AR (Homo sapiens, UniProt P07550); experiment: HTS (PHERAstar FS) fluorescent ligand competition binding in live CHO cells, 10 nM BODIPY-TMR-CGP tracer; settings: for β2AR % Total binding at 10 μM: 10 μM compound, 10 nM BODIPY-TMR-CGP, mean ± SEM, n=3
T1 construct: expressed in transfected cells
Procedure: (§1) CHO cells stably expressing the A3AR, A1AR, β1AR or β2AR were seeded into the central 60 wells (for high content confocal analysis) or every well (high throughput analysis) of a 96-well clear-bottomed, black-walled plate (Greiner BioOne) and grown to confluency. […] Cells were incubated for 1h at 37°C/5% CO2. Buffer was then removed from each well, cells washed once in HBSS and fresh HBSS added at room temperature. Plates were then immediately subjected to high content or HTS analysis as detailed below.
(§2) High throughput analysis was performed using a PHERAstar FS plate reader (BMG Technologies). […] Optimal focal height was determined automatically and total fluorescence intensity was assessed by taking 81 reads per well.
(§3) Competition binding curves were fitted to the following equation using GraphPad Prism 5 (GraphPad Software): […]
(§4) where [L] is the concentration and KD is the equilibrium dissociation constant of the fluorescent ligand.

human A3AR [1] = target: T2, human A3AR (Homo sapiens, UniProt P0DMS8); experiment: LOPAC library primary screen: single concentration (10 μM) inhibition of 25 nM CA200645 binding, PHERAstar FS
T2 construct: expressed in transfected cells
T2 sequence (P0DMS8 1-318): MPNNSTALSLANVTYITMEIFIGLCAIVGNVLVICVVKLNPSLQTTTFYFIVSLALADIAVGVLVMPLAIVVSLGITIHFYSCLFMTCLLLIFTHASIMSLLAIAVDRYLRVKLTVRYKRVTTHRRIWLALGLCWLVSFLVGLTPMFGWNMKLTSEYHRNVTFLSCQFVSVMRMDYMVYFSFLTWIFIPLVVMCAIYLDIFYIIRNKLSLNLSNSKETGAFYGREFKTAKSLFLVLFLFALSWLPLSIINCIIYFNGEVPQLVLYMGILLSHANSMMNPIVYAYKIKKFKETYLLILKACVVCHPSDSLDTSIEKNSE

human A1AR = target: T3, human A1AR (Homo sapiens, UniProt P30542); experiment: HTS (PHERAstar FS) fluorescent ligand competition binding in live CHO cells, 25 nM CA200645 tracer; settings: secondary screen of LOPAC hits; for Ki: 25 nM CA200645, mean ± SEM, n=3, read-out: A1AR pKi (selected LOPAC hits) (converted)
T3 construct: expressed in transfected cells
T3 sequence (P30542 1-326): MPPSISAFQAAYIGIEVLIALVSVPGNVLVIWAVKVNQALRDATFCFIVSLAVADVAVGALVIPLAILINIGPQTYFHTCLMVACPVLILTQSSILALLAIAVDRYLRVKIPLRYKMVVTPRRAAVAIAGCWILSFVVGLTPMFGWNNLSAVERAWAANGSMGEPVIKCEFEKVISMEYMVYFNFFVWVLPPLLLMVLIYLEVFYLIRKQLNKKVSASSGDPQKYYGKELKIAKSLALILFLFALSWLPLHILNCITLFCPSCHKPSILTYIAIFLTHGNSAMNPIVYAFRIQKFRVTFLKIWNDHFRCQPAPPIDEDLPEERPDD
Procedure: as §1, §2, §3, §4

human A3AR [2] = target: T2, human A3AR; experiment: as above; settings: for displacement of CA200645 binding at the A3AR in full inhibition curves: secondary screen of top ten hits, highest concentration 10 μM, affinity not determinable
Procedure: as §1, §2, §3, §4

A1AR = settings: cited from earlier work
human A3AR [3] = target: T2, human A3AR; experiment: HTS (PHERAstar FS) fluorescent ligand competition binding in live CHO cells, 5 nM AV039 tracer
Procedure: as §1, §2, §3, §4

A3AR = settings: ref Stoddart et al. ([2012]); cited from earlier work
[4] = % of control wells (1% DMSO and 25 nM CA200645), compounds at 10 µM, whole live cells expressing the A3AR, mean ± SD, three experiments in duplicate
[5] = secondary screen of LOPAC hits, full inhibition curves, 25 nM CA200645, mean ± SEM, n=3, read-out: A3AR pKi (selected LOPAC hits) (converted)

T1 sequence (P07550 whole entry): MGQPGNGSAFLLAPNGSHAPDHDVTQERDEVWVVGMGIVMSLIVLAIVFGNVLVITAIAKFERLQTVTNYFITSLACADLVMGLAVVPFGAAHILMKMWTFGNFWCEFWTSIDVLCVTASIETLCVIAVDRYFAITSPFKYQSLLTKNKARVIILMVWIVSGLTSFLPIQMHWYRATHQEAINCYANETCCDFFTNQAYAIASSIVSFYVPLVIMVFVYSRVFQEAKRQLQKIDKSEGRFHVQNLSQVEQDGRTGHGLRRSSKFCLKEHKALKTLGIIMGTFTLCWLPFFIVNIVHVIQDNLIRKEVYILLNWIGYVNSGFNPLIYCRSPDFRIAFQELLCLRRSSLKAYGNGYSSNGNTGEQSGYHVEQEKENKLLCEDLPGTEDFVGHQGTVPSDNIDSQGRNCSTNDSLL

Compound: Oc1ccc(/C=C/c2ccc(/C=C/c3ccc(O)cc3)c(Br)c2)cc1 [K114]
- β2AR % Total binding at 10 μM (β2AR): 95.8 ± 5.5%
- % 25 nM CA200645 binding (human A3AR [1]; [4]): 24.6 ± 5.8%
- Ki (human A1AR): 275 nM
- Ki (human A3AR [2]; [5]): 372 nM

Compound: O=C(Cc1ccccc1)Nc1nc2ccc(Cl)cc2c2nc(-c3ccco3)nn12 [MRS1220]
- Literature values (A1AR) (A1AR; A1AR, ref Stoddart et al. ([2012])): 7.14

Compound: Cn1c(=O)c(-c2c(Cl)cccc2Cl)cc2cnc(Nc3ccc(N4CCOCC4)cc3)nc21 [PD173952, reference compound]
- % 25 nM CA200645 binding (human A3AR [1]): 25.6 ± 5.3%
- displacement of CA200645 binding at the A3AR in full inhibition curves (human A3AR [2]): only displaced the binding of CA200645 at the highest concentration tested

Compound: CC1=C(/C=C/C(C)=C/C=C/C(C)=C/C(=O)Nc2ccc(O)cc2)C(C)(C)CCC1 [Retinoic acid p-hydroxyanilide]
- β2AR % Total binding at 10 μM (β2AR): 102.7 ± 5.1%
- % 25 nM CA200645 binding (human A3AR [1]; [4]): 26.5 ± 2.0%
- Ki (human A1AR): 912 nM
- Ki (human A3AR [2]; [5]): 741 nM

Compound: Nc1nc(NCCc2ccc(O)cc2)nc2nc(-c3ccco3)nn12 [ZM241385]
- Ki (human A3AR [3]; CHO cells expressing A3AR, 5 nM AV039, PHERAstar HTS assay, mean ± SEM, read-out: pKi A3AR AV039 (converted)): 479 nM
- Literature values (A3AR) (A3AR): 6.74
- Ki (human A3AR [2]; CHO cells expressing A3AR, 25 nM CA200645, PHERAstar HTS assay, mean ± SEM, read-out: pKi A3AR CA200645 (converted)): 234 nM

Compound: CA200645
- Kd (A1AR; ref Stoddart et al., [2012], read-out: KD of fluorescent ligand at the A1AR): 11 nM

Compound: CC(=O)c1c(O)c(C)c(O)c(Cc2c(O)c3c(c(C(=O)/C=C/c4ccccc4)c2O)OC(C)(C)C=C3)c1O [rottlerin, reference compound]
- % 25 nM CA200645 binding (human A3AR [1]): 22.8 ± 1.4%
- displacement of CA200645 binding at the A3AR in full inhibition curves (human A3AR [2]): only displaced the binding of CA200645 at the highest concentration tested

Compound: Nc1nc2ccc(Cl)cc2c2nc(-c3ccco3)nn12 [CGS15943]
- β2AR % Total binding at 10 μM (β2AR): 115.4 ± 5.0%
- effect on binding of BODIPY-TMR-CGP at the β2AR (β2AR; secondary screen of LOPAC hits): no effect
- Ki (human A3AR [3]): 12.3 nM
- Literature values (A3AR) (A3AR): 8.18
- % Total CA200645 binding (human A3AR [1]): 30.0 ± 3.0%
- Ki (human A3AR [2]): 12.3 nM

Compound: CN(C)S(=O)(=O)c1ccc2c(c1)/C(=C/c1cc3c([nH]1)CCCC3)C(=O)N2 [SU 6656]
- β2AR % Total binding at 10 μM (β2AR): 128.4 ± 18.4%
- % 25 nM CA200645 binding (human A3AR [1]): 17.3 ± 1.8%
- inhibition of CA200645 binding at the A1AR (human A1AR): only inhibited binding at the highest concentration tested
- Ki (human A3AR [2]; [5]): 676 nM
